According to patent US20250099478A1, “PLASMA KALLIKREIN INHIBITORS” (Merck Sharp & Dohme LLC, priority 2022, published 2025):

target: T1, Human plasma kallikrein (Homo sapiens, UniProt P03952); test: Plasma Kallikrein Assay; assay type: biochemical; details: purified Human plasma kallikrein 0.5 nM, substrate Acetyl-K-P-R-AFC; read-out: PKal IC50
T1 construct: yields a heavy chain (371 amino acids) and a light chain (248 amino acids); purchased Enzyme Research Laboratories
Method: The effectiveness of a compound of the present invention as an inhibitor of plasma kallikrein can be determined using a relevant purified serine protease, and an appropriate synthetic substrate. The rate of hydrolysis of the chromogenic or fluorogenic substrate by the relevant serine protease was measured both in the absence and presence of compounds of the present invention. Assays were conducted at rt or at 37° C. […] A decrease in the rate of fluorescence change in the presence of inhibitor is indicative of enzyme inhibition. Such methods are known to one skilled in the art. The results of this assay are expressed as the half-maximal inhibitory concentrations (IC50), or the inhibitory constant, Ki.
Plasma kallikrein determinations were made in 50 mM HEPES buffer at pH 7.4 containing 150 mM NaCl, 5 mM CaCl2), and 0.1% PEG 8000 (polyethylene glycol; Fisher Scientific). Determinations were made using purified Human plasma kallikrein at a final concentration of 0.5 nM (Enzyme Research Laboratories) and the synthetic substrate, Acetyl-K-P-R-AFC (Sigma #C6608) at a concentration of […].
Times required to achieve equilibration between enzyme and inhibitor were determined in control experiments. […] IC50 was determined by inflection point from a four parameter logistic curve fit. Ki was calculated using the Cheng Prusoff equation, Ki=IC50/(1+([S]/Km)).

T1 sequence (P03952 391-638 limits assumed): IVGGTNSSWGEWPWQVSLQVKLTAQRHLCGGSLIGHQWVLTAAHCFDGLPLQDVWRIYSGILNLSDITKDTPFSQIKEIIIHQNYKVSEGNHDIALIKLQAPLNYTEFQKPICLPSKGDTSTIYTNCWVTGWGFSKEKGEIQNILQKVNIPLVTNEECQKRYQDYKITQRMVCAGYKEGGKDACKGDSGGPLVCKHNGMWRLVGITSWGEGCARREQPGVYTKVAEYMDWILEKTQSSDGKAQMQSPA
T1 sequence (P03952 20-390 partner limits assumed): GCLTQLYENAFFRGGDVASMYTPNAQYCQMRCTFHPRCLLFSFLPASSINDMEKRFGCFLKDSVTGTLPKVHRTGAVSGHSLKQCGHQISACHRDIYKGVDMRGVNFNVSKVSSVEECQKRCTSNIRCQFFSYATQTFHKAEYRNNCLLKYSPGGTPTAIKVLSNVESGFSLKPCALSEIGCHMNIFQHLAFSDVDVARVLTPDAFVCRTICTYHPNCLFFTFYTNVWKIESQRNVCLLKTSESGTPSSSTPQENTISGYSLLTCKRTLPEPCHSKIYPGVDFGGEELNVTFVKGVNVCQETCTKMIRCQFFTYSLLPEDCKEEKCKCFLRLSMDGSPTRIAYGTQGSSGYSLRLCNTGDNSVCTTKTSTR

Structure (SMILES) | IC50
CC(c1ccccc1)n1cc(C(=O)N2CCC[C@@]3(C2)OC(=O)Nc2ccc(Cl)c(F)c23)cn1 (single isomer, unassigned) [Example 23] | 46 nM
CC(c1ccccc1)n1cc(C(=O)N2CCC[C@@]3(C2)OC(=O)Nc2ccc(Cl)c(F)c23)cn1 (single isomer, unassigned) [Example 24] | 38.3 nM
C[C@H](c1cccc(Cl)c1)n1cc(C(=O)N2CCC[C@@]3(C2)OC(=O)Nc2ccc(Cl)c(F)c23)cn1 (single isomer, unassigned) [Example 28] | 10.4 nM
CCC(c1ccc2ncncc2c1)n1cc(C(=O)N2CCC[C@@]3(C2)OC(=O)Nc2ccc(Cl)c(F)c23)cn1 (single isomer, unassigned) [Example 41] | 33.8 nM
CC[C@@H](c1ccc(F)cc1)c1nnc(C(=O)N2CCC[C@@]3(C2)OC(=O)Nc2ccc(Cl)c(F)c23)[nH]1 (single isomer, unassigned) [Example 84] | 4.5 nM
O=C1Nc2ccc(Cl)c(F)c2[C@@]2(CCCN(C(=O)C3(F)CCN(Cc4ccccc4)C3)C2)O1 (single isomer, unassigned) [Example 131, (R)-1′-((S or R)-1-Benzyl-3-fluoropyrrolidine-3-carbonyl)-6-chloro-5-fluorospiro[benzo[d][1,3]oxazine-4,3′-piperidin]-2(1H)-one] | 9.4 nM
O=C1Nc2ccc(Cl)c(F)c2[C@]2(CCN(C(=O)C3CCN(Cc4ccc(Cn5ccccc5=O)cc4)C3)C2)O1 (single isomer, unassigned) [Example 136] | 43.2 nM
O=C1Nc2ccc(Cl)c(F)c2[C@]2(CCN(C(=O)C3CCN(Cc4ccc(Cn5ccccc5=O)cc4)C3)C2)O1 (single isomer, unassigned) [Example 137] | 31 nM
O=C1Nc2ccc(Cl)c(F)c2[C@@]2(CCCN(C(=O)c3cnn(Cc4ccc(F)c(F)c4)c3)C2)O1 [Example 4, (R)-6-Chloro-1′-(1-(3,4-difluorobenzyl)-1H-pyrazole-4-carbonyl)-5-fluorospiro[benzo[d][1,3]oxazine-4,3′-piperidin]-2(1H)-one] | 20 nM
O=C1Nc2ccc(Cl)c(F)c2[C@@]2(CCCN(C(=O)c3cnn(Cc4cccc(C(F)(F)F)c4)c3)C2)O1 [Example 5, (R)-6-Chloro-5-fluoro-1′-(1-(3-(trifluoromethyl)benzyl)-1H-pyrazole-4-carbonyl)spiro[benzo[d][1,3]oxazine-4,3′-piperidin]-2(1H)-one] | 23.1 nM
O=C1Nc2ccc(Cl)c(F)c2[C@@]2(CCCN(C(=O)c3cnn(Cc4ccc(F)c(Cl)c4)c3)C2)O1 [Example 6, (R)-6-Chloro-1′-(1-(3-chloro-4-fluorobenzyl)-1H-pyrazole-4-carbonyl)-5-fluorospiro[benzo[d][1,3]oxazine-4,3′-piperidin]-2(1H)-one] | 8 nM
O=C1Nc2ccc(Cl)c(F)c2[C@@]2(CCCN(C(=O)c3cnn(Cc4ccc(F)c(N5CCC5)c4)c3)C2)O1 [Example 8, (R)-1′-(1-(3-(Azetidin-1-yl)-4-fluorobenzyl)-1H-pyrazole-4-carbonyl)-6-chloro-5-fluorospiro[benzo[d][1,3]oxazine-4,3′-piperidin]-2(1H)-one] | 34.1 nM
O=C1Nc2ccc(Cl)c(F)c2[C@@]2(CCCN(C(=O)c3cnn(Cc4cccc(C5CC5)c4)c3)C2)O1 [Example 10, (R)-6-Chloro-1′-(1-(3-cyclopropylbenzyl)-1H-pyrazole-4-carbonyl)-5-fluorospiro[benzo[d][1,3]oxazine-4,3′-piperidin]-2(1H)-one] | 26.8 nM
O=C1Nc2ccc(Cl)c(F)c2[C@@]2(CCCN(C(=O)c3cnn(Cc4cncc(Cl)c4)c3)C2)O1 [Example 12, (R)-6-Chloro-1′-(1-((5-chloropyridin-3-yl)methyl)-1H-pyrazole-4-carbonyl)-5-fluorospiro[benzo[d][1,3]oxazine-4,3′-piperidin]-2(1H)-one] | 26.4 nM
COc1ccc(Cl)cc1Cn1cc(C(=O)N2CCC[C@@]3(C2)OC(=O)Nc2ccc(Cl)c(F)c23)cn1 [Example 13, (R)-6-Chloro-1′-(1-(5-chloro-2-methoxybenzyl)-1H-pyrazole-4-carbonyl)-5-fluorospiro[benzo[d][1,3]oxazine-4,3′-piperidin]-2(1H)-one] | 37.6 nM
O=C1Nc2ccc(Cl)c(F)c2[C@@]2(CCCN(C(=O)c3cnn(Cc4noc5ccccc45)c3)C2)O1 [Example 17, (R)-1′-(1-(Benzo[d]isoxazol-3-ylmethyl)-1H-pyrazole-4-carbonyl)-6-chloro-5-fluorospiro[benzo[d][1,3]oxazine-4,3′-piepridin]-2(1H)-one] | 37.8 nM
Cc1nc(Cn2cc(C(=O)N3CCC[C@@]4(C3)OC(=O)Nc3ccc(Cl)c(F)c34)cn2)sc1C [Example 18, (R)-6-Chloro-1′-(1-((4,5-dimethylthiazol-2-yl)methyl)-1H-pyrazole-4-carbonyl)-5-fluorospiro[benzo[d][1,3]oxazine-4,3′-piperidin]-2(1H)-one] | 50.4 nM
O=C1Nc2ccc(Cl)c(F)c2[C@@]2(CCCN(C(=O)c3cnn(Cc4cnc5ccccn45)c3)C2)O1 [Example 19, (R)-6-Chloro-5-fluoro-1′-(1-(imidazo[1,2-a]pyridin-3-ylmethyl)-1H-pyrazole-4-carbonyl)spiro[benzo[d][1,3]oxazine-4,3′-piperidin]-2(1H)-one] | 27 nM
CC1CN(C(=O)c2cnn(Cc3ccccc3)c2)C[C@]2(C1)OC(=O)Nc1ccc(Cl)c(F)c12 (stereo partly drawn) [Example 20, (4R)-1′-(1-Benzyl-1H-pyrazole-4-carbonyl)-6-chloro-5-fluoro-5′-methylspiro[benzo[d][1,3]oxazine-4,3′-piperidin]-2(1H)-one] | 28.1 nM
CC1(C)CN(C(=O)c2cnn(Cc3ccccc3)c2)C[C@]2(C1)OC(=O)Nc1ccc(Cl)c(F)c12 [Example 21, (R)-1′-(1-Benzyl-1H-pyrazole-4-carbonyl)-6-chloro-5-fluoro-5′,5′-dimethylspiro[benzo[d][1,3]oxazine-4,3′-piperidin]-2(1H)-one] | 12.1 nM
C[C@@H](c1cccc(Cl)c1)n1cc(C(=O)N2CCC[C@@]3(C2)OC(=O)Nc2ccc(Cl)c(F)c23)cn1 [Example 27, (R)-6-Chloro-1′-(1-((S)-1-(3-chlorophenyl)ethyl)-1H-pyrazole-4-carbonyl)-5-fluorospiro[benzo[d][1,3]oxazine-4,3′-piperidin]-2(1H)-one] | 10.9 nM
N#Cc1ccc(Cn2cc(C(=O)N3CCC[C@@]4(C3)OC(=O)Nc3ccc(Cl)c(F)c34)cn2)cc1Cl [Example 47, (R)-2-Chloro-4-((4-(6-chloro-5-fluoro-2-oxo-1,2-dihydrospiro[benzo[d][1.3]oxazine-4,3′-piperidine]-1′-carbonyl)-1H-pyrazol-1-yl)methyl)benzonitrile] | 27.1 nM
O=C1Nc2ccc(Cl)c(F)c2[C@@]2(CCCN(C(=O)c3cnn(Cc4cccc(C5CC5)c4)c3)C2)O1 [Example 48, (R)-6-Chloro-1′-(1-(3-cyclopropylbenzyl)-1H-pyrazole-4-carbonyl)-5-fluorospiro[benzo[d][1,3]oxazine-4,3′-piperidin]-2(1H)-one] | 32.6 nM
COC(=O)c1ccc(Cn2cc(C(=O)N3CCC[C@@]4(C3)OC(=O)Nc3ccc(Cl)c(F)c34)cn2)cc1F [Example 49, Methyl (R)-4-((4-(6-chloro-5-fluoro-2-oxo-1,2-dihydrospiro[benzo[d][1,3]oxazine-4,3′-piperidine]-1′-carbonyl)-1H-pyrazol-1-yl)methyl)-2-fluorobenzoate] | 47 nM
